{"source": "patent US9629921B2", "about": "“Smart pro-drugs of serine protease inhibitors” (Trustees of Tufts College, priority 2002, dated 2017)", "key": {"[1]": {"molecular_target": "DPP IV (Homo sapiens, UniProt P27487)", "sequence (P27487 whole entry, species assumed)": "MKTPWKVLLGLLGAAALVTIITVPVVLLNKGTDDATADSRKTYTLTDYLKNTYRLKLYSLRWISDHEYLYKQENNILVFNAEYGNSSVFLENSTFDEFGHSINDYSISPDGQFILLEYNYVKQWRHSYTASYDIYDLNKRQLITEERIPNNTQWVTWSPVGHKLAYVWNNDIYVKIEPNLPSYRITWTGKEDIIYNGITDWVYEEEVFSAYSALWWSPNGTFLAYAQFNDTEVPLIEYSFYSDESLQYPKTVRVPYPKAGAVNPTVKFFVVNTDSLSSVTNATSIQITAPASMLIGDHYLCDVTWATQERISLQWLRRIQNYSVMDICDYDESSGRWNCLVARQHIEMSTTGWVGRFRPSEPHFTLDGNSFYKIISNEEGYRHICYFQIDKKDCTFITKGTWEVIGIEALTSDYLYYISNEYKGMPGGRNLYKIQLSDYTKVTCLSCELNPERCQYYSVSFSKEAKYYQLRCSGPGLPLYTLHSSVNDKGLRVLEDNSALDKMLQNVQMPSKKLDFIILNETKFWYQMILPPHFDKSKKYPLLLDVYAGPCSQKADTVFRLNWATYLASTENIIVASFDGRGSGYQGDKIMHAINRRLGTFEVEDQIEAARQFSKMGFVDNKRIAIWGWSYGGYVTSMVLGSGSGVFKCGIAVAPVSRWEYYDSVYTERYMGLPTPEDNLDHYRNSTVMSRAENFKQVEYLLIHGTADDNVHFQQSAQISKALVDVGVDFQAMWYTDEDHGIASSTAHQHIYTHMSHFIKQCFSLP", "assay": "In vitro DPP IV enzyme inhibition assay; inhibitors incubated at pH 2 or pH 8, then added to enzyme assay solution at pH 8.0", "assay_type": "biochemical", "method": "Inhibitors were incubated overnight in pH 2 or pH 8 solutions and then added directly to an enzyme assay solution at pH 8.0.\nIt is important to note that the x-axis in FIG. 3 refers to the concentration of the SPI, not the concentration of the released Xaa-boroPro."}, "[2]": {"tested_on": "Zucker rats", "assay": "Toxicity (mortality) after oral dose in rats", "assay_type": "in vivo"}, "[3]": {"tested_on": "Diabetic Mice", "assay": "Toxicity (mortality) of Val-boroPro in diabetic mice", "assay_type": "in vivo"}, "[4]": {"molecular_target": "serum DPP IV (Mus musculus, UniProt P28843)", "sequence (P28843 37-760 limits assumed)": "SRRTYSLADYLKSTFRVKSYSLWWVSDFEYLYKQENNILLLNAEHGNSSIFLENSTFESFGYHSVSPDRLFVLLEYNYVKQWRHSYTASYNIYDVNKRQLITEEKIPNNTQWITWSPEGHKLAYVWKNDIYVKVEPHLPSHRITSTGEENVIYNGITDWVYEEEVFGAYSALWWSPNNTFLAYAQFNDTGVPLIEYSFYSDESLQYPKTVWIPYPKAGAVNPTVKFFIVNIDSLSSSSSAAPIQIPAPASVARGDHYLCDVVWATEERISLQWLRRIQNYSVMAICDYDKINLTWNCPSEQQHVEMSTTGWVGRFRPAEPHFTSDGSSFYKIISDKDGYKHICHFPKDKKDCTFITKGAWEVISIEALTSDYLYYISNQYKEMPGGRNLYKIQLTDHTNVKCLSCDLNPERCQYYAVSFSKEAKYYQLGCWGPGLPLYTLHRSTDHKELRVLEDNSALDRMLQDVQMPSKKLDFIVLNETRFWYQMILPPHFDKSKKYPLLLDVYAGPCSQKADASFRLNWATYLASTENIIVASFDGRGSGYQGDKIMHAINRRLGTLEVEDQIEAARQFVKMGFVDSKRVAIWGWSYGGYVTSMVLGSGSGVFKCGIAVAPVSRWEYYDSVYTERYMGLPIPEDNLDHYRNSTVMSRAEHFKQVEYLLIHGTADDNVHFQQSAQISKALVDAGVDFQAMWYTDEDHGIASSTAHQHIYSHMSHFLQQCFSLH", "assay": "In vivo inhibition of serum DPP IV in db/db mice after oral dose", "conditions": "Diabetic-control = 100.00; for activity at 0.0025 mg/kg / activity at 0.01 mg/kg / activity at 0.025 mg/kg: mouse, iv; for activity at 0.0025 mg/kg: read-out: In vivo inhibition of serum DPP IV, 0.0025 mg/kg; for activity at 0.01 mg/kg: read-out: In vivo inhibition of serum DPP IV, 0.01 mg/kg; for activity at 0.025 mg/kg: read-out: In vivo inhibition of serum DPP IV, 0.025 mg/kg"}, "[5]": {"molecular_target": "T1, Serum DPP IV (Rattus norvegicus, UniProt P14740)", "T1 construct": "Serum DPP IV activity in rats as a function of time; from tissue; host or cells: rat serum", "T1 sequence (P14740 37-767 limits assumed)": "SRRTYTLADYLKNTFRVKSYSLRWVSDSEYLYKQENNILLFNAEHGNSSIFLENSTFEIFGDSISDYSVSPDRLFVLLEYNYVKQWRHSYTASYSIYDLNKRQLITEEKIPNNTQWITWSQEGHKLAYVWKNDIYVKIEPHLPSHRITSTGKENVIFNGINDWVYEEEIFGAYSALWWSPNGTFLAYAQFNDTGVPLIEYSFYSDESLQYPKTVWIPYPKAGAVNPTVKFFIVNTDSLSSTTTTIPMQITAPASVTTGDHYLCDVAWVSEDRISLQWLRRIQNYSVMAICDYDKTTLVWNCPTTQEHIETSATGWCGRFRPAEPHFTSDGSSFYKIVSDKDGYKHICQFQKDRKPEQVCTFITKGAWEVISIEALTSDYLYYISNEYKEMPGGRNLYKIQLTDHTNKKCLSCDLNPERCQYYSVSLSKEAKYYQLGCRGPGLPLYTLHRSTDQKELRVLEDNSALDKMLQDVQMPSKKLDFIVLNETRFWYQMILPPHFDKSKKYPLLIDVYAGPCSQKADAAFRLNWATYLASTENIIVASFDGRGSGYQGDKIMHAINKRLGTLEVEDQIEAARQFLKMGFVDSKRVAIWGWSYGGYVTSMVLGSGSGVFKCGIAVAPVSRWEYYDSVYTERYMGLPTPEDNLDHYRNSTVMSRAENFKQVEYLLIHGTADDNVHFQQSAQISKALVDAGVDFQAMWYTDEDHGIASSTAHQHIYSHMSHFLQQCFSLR", "assay": "Serum DPP IV activity in rats as a function of time after dosing", "assay_type": "in vivo", "conditions": "rats, single oral dose of 0.025 mg/kg, average of four rats (FIG. 8)", "method": "FIG. 8 Serum DPP IV activity in rats as a function of time following a single oral dose of 0.025 mg/kg. Each bar represents the average of four rats.\nEach bar represents the average of four rats."}, "[6]": {"tested_on": "male Sprague-Dawley rats", "assay": "Example 10: clinical signs and mortality after single oral administration in male rats;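 further: test articles given by mouth, formulated in deionized Type I water as vehicle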", "conditions": "for Clinical Observation: one line per animal, wrapped cell 'Redness of ears' continues 'and paws'"}, "[7]": {"conditions": "pH 2, ten minutes, read-out: IC50 Values at Ten Minutes pH 2"}, "[8]": {"conditions": "pH 8, ten minutes, read-out: IC50 Values at Ten Minutes pH 8"}, "[9]": {"conditions": "pH 2, read-out: Tetrapeptide Prodrugs (IC50) pH 2"}, "[10]": {"conditions": "pH 8, read-out: Tetrapeptide Prodrugs (IC50) pH 8"}}, "note": "Where “and” joins values, the source holds several entries; their conditions need not be identical. Equal values may be shown once. Read-outs that look alike come from different tables or passages of the source.", "data": [{"compound": "CCC(NC(=O)C1CCN1C(=O)C(N)C1CCCCC1)C(=O)N1CCCC1B(O)O", "note": "(stereo not drawn) [ChgAzeEtgboroPro]", "values": [{"measurement": "IC50", "setting": "[1]; [7]", "result": 15, "unit": "nM"}, {"measurement": "IC50", "setting": "[1]; [8]", "result": 16, "unit": "nM"}]}, {"compound": "CC(NC(=O)C(NC(=O)C1CCCN1C(=O)C(N)C1CCCCC1)C1CCCCC1)B(O)O", "note": "(stereo not drawn) [ChgProChgboroAla]", "values": [{"measurement": "IC50", "setting": "[1]; [9]", "result": 180, "unit": "nM"}, {"measurement": "IC50", "setting": "[1]; [7]", "result": 180, "unit": "nM"}, {"measurement": "IC50", "setting": "[1]; [10]", "result": 170, "unit": "nM"}, {"measurement": "IC50", "setting": "[1]; [8]", "result": 170, "unit": "nM"}]}, {"compound": "CC(NC(=O)C(N)C1CCCCC1)C(=O)N1CCCC1C(=O)N1CCCC1B(O)O", "note": "(stereo not drawn) [ChgAlaProboroPro]", "values": [{"measurement": "IC50", "setting": "[1]; [7]", "result": 2000, "unit": "nM"}, {"measurement": "IC50", "setting": "[1]; [8]", "result": 30000, "unit": "nM"}]}, {"compound": "CC(C)[C@H](N)C(=O)N1CCC[C@H]1B(O)O", "note": "[Val-boroPro]", "values": [{"measurement": "MORTALITY", "setting": "[2]; 0.035 mg/kg Oral, Zucker Lean, 4 animals dosed, project 002969", "result": 1}, {"measurement": "MORTALITY", "setting": "[2]; 0.035 mg/kg Oral, Zucker Obese, 4 animals dosed, project 002969", "result": 4}, {"measurement": "MORTALITY", "setting": "[2]; 0.35 mg/kg Oral, Zucker Lean, 4 animals dosed, project 002969", "result": 4}, {"measurement": "MORTALITY", "setting": "[2]; 0.35 mg/kg Oral, Zucker Obese, 4 animals dosed, project 002969", "result": 4}, {"measurement": "MORTALITY", "setting": "[2]; 1.75 mg/kg Oral, Zucker Lean, 4 animals dosed, project 002969", "result": 2}, {"measurement": "MORTALITY", "setting": "[2]; 1.75 mg/kg Oral, Zucker Obese, 4 animals dosed, project 002969", "result": 2}, {"measurement": "MORTALITY", "setting": "[2]; 5 mg/kg Oral, Zucker Lean, 3 animals dosed, project 002898", "result": 3}, {"measurement": "MORTALITY", "setting": "[2]; 5 mg/kg Oral, Zucker Obese, 4 animals dosed, project 002898", "result": 4}, {"measurement": "Mortality (rats killed)", "setting": "[2]; Zucker rats, dose of 0.035 mg/kg", "result": "four out of four"}, {"measurement": "Toxicity to rats", "setting": "[2]; rats", "result": "quite toxic to rats"}, {"measurement": "MORTALITY", "setting": "[3]; 0.035 mg/kg, Diabetic Mice (starved), 8 animals dosed, project 011050", "result": 0}, {"measurement": "MORTALITY", "setting": "[3]; 0.035 mg/kg, Diabetic Mice, 7 animals dosed, project 010757", "result": 0}, {"measurement": "MORTALITY", "setting": "[3]; 0.035 mg/kg, Diabetic Mice, 8 animals dosed, project 011050 group 3", "result": 0}, {"measurement": "MORTALITY", "setting": "[3]; 0.35 mg/kg, Diabetic Mice, 7 animals dosed, project 010757", "result": 0}, {"measurement": "Toxic effect in mice", "setting": "[3]; 3.5 mg/kg", "result": "no noticeable toxic effect"}, {"measurement": "MORTALITY", "setting": "[3]; 3.5 mg/kg, Diabetic Mice, 7 animals dosed, project 010757", "result": 0}, {"measurement": "Toxicity to mice", "setting": "[3]; mice", "result": "apparently not at all"}, {"measurement": "In vivo inhibition of serum DPP IV", "setting": "[4]; 0.0025 mg/kg, 1 hr Post Rx-Glucose", "result": 94.52}, {"measurement": "In vivo inhibition of serum DPP IV", "setting": "[4]; 0.0025 mg/kg, 4 hrs Post Rx-Glucose", "result": 93.30}, {"measurement": "In vivo inhibition of serum DPP IV", "setting": "[4]; 0.01 mg/kg, 1 hr Post Rx-Glucose", "result": 59.36}, {"measurement": "In vivo inhibition of serum DPP IV", "setting": "[4]; 0.01 mg/kg, 4 hrs Post Rx-Glucose", "result": 58.85}, {"measurement": "In vivo inhibition of serum DPP IV", "setting": "[4]; 0.025 mg/kg, 1 hr Post Rx-Glucose", "result": 47.49}, {"measurement": "In vivo inhibition of serum DPP IV", "setting": "[4]; 0.025 mg/kg, 4 hrs Post Rx-Glucose", "result": 39.23}]}, {"compound": "NC(Cc1ccc(O)cc1)C(=O)N1CCCC1C(=O)NC(Cc1ccccc1)C(=O)N1CCCC1B(O)O", "note": "(stereo not drawn) [TyrProPheboroPro]", "values": [{"measurement": "IC50", "setting": "[1]; IC50 Values at Ten Minutes pH 2, pH 2, ten minutes", "result": 50, "unit": "nM"}, {"measurement": "IC50", "setting": "[1]; IC50 Values at Ten Minutes pH 8, pH 8, ten minutes", "result": 60, "unit": "nM"}]}, {"compound": "CC(NC(=O)C1CCCN1C(=O)C(N)C1CCCCC1)C(=O)N1CCCC1B(O)O", "note": "(stereo not drawn) [ChgProAlaboroPro, Cyclohexylglycine-Proline-Ala-boroProline]", "values": [{"measurement": "IC50", "setting": "[1]; [9]", "result": 19, "unit": "nM"}, {"measurement": "IC50", "setting": "[1]; [7]", "result": 17, "unit": "nM"}, {"measurement": "IC50", "setting": "[1]; [10]", "result": 15, "unit": "nM"}, {"measurement": "IC50", "setting": "[1]; [8]", "result": 17, "unit": "nM"}, {"measurement": "Inhibition of serum DPP IV activity compared with Val-boroPro", "setting": "[5]", "result": "much less orally active"}, {"measurement": "activity at 0.0025 mg/kg", "setting": "[4]; 1 hr Post Rx-Glucose", "result": 110, "unit": "%"}, {"measurement": "activity at 0.0025 mg/kg", "setting": "[4]; 4 hrs Post Rx-Glucose", "result": 99.5, "unit": "%"}, {"measurement": "activity at 0.01 mg/kg", "setting": "[4]; 1 hr Post Rx-Glucose", "result": 100, "unit": "%"}, {"measurement": "activity at 0.01 mg/kg", "setting": "[4]; 4 hrs Post Rx-Glucose", "result": 77.5, "unit": "%"}, {"measurement": "activity at 0.025 mg/kg", "setting": "[4]; 1 hr Post Rx-Glucose", "result": 111, "unit": "%"}, {"measurement": "activity at 0.025 mg/kg", "setting": "[4]; 4 hrs Post Rx-Glucose", "result": 58.9, "unit": "%"}, {"measurement": "Clinical Observation", "setting": "[6]; 0.5 mg/kg ALA-PRO boronic dose equivalents", "result": "None"}, {"measurement": "Clinical Observation", "setting": "[6]; 2.5 mg/kg ALA-PRO boronic dose equivalents", "result": "None"}, {"measurement": "Approximate Time of Sacrifice or Time Animal was Found Dead (hr post-dose)", "setting": "[6]; 10.0 mg/kg ALA-PRO boronic dose equivalents", "result": "~5 h (sacrificed)"}, {"measurement": "Clinical Observation", "setting": "[6]; 10.0 mg/kg ALA-PRO boronic dose equivalents, listed as L-2-Chg-PRO-ALA-PRO boronic acid", "result": "Redness of ears and Decreased activity and labored breathing and None (2×)"}]}, {"compound": "CC(N)C(=O)NC(C)C(=O)N1CCCC1C(=O)N1CCCC1B(O)O", "note": "(stereo not drawn) [AlaAlaProboroPro]", "values": [{"measurement": "IC50", "setting": "[1]; [7]", "result": 3000, "unit": "nM"}]}, {"compound": "CC(NC(=O)C(NC(=O)C1CCCN1C(=O)C(N)C1CCCCC1)C(C)(C)C)B(O)O", "note": "(stereo not drawn) [ChgProtBugboroAla]", "values": [{"measurement": "IC50", "setting": "[1]; [7]", "result": 6800, "unit": "nM"}, {"measurement": "IC50", "setting": "[1]; [8]", "result": 8400, "unit": "nM"}]}, {"compound": "CCC(NC(=O)C(C)NC(=O)C(N)C1CCCCC1)C(=O)NC(C)B(O)O", "note": "(stereo not drawn) [ChgAlaEtgboroAla]", "values": [{"measurement": "IC50", "setting": "[1]; [7]", "result": 1300, "unit": "nM"}, {"measurement": "IC50", "setting": "[1]; [8]", "result": 2500, "unit": "nM"}]}, {"compound": "ChgPipEtgboroPro", "values": [{"measurement": "IC50", "setting": "[1]; [7]", "result": 19, "unit": "nM"}, {"measurement": "IC50", "setting": "[1]; [8]", "result": 14, "unit": "nM"}]}, {"compound": "CC[C@H](NC(=O)[C@@H]1CSCN1C(=O)[C@@H](N)C1CCCCC1)C(=O)N1CCC[C@H]1B(O)O", "note": "[ChgThz4EtgboroPro]", "values": [{"measurement": "IC50", "setting": "[1]; [7]", "result": 13, "unit": "nM"}, {"measurement": "IC50", "setting": "[1]; [8]", "result": 16, "unit": "nM"}]}, {"compound": "O=C(C1CCCN1)N1CCCC1B(O)O", "note": "(stereo not drawn) [Pro-boroPro, reference compound]", "values": [{"measurement": "pH dependence of DPP IV inhibition", "setting": "[1]; pre-incubated at low pH vs high pH (FIG. 3, FIG. 64, Table 1)", "result": "more effective as inhibitors of DPP IV when pre-incubated at low pH than at high pH"}]}, {"compound": "CCC(NC(=O)C1CC(O)CN1C(=O)C(N)C1CCCCC1)C(=O)N1CCCC1B(O)O", "note": "(stereo not drawn) [ChgHypEtgboroPro]", "values": [{"measurement": "IC50", "setting": "[1]; [7]", "result": 17, "unit": "nM"}, {"measurement": "IC50", "setting": "[1]; [8]", "result": 25, "unit": "nM"}]}, {"compound": "O=C(C1CCCN1C(=O)C1CCCN1C(=O)C1CCCN1)N1CCCC1B(O)O", "note": "(stereo not drawn) [ProProProboroPro]", "values": [{"measurement": "IC50", "setting": "[1]; [9]", "result": 10000, "unit": "nM"}, {"measurement": "IC50", "setting": "[1]; [7]", "result": 10000, "unit": "nM"}]}, {"compound": "CC(N)C(=O)N1CCCC1C(=O)N1CCCC1C(=O)N1CCCC1B(O)O", "note": "(stereo not drawn) [AlaProProboroPro]", "values": [{"measurement": "IC50", "setting": "[1]; [7]", "result": 8300, "unit": "nM"}]}]}
